Measured values taken from patent US20090142363A1, “CYTOTOXIC T-CELL EPITOPE PEPTIDE AND USE THEREOF” (priority 2005, published 2009).
No end group written: not given here.

Test system: PBMCs of healthy adults reactive to the anti-HLA-A*24 antibody
Test: Induction of specific CTLs from PBMCs, method for quantifying cells producing intracellular IFNγ
Assay type: cell-based, human
Design: key to specific CTL induction, cytokine quantification method: ∘: “open circle” indicates that the use of a candidate peptide enabled specific CTLs to be induced; x: “cross” indicates that specific CTLs was unable to be induced
Conditions: for specific CTL induction confirmed by CD8-positive, IFNγ-positive cells versus HIV peptide: donor ID*24-8, FIG. 3a-d; for peptide-specific cytokine production in PBMCs derived from ten people with HLA-A*24 molecule: summary of Table 2
Protocol: This induction method induces CTLs by adding peptides to culture media of PBMCs. Peptides are presented on antigen-presenting cells present among PBMCs, such as dendritic cells, B cells, macrophages, and certain types of T cells, whereby CTL precursor cells in PBMCs are stimulated to proliferate.
Peripheral blood collected from healthy adults that were reactive to the anti-HLA-A*24 antibody was centrifuged at 3,000 rpm for 5 to 10 minutes. The resulting supernatant plasma was collected. The non-plasma portion was processed according to a conventional method to isolate PBMCs. The characteristic of the present method is the addition of several % of plasma to an induction medium. In the present invention, a favorable result was obtained by adding 5% plasma. The medium is prepared by adding appropriate additives and antibiotics to a medium commonly used for cell culture. The CTL induction medium used in the present invention was RPMI1640 Hepes modify (Sigam) supplemented with 2-mercapotethanol, L-glutamine, and the antibiotics streptomycin and penicillin. In addition to these, insulin, transferrin, selenious acid, pyruvic acid, human serum albumin, solution of non-essential amino acids, and the like may be added. 1 to 3×10^6 PBMCs were suspended in 1 to 2.5 ml of the culture medium. A candidate peptide was added to the cells at a concentration of 1 to 20 μg/ml. The concentration of peptide can be altered depending on the solubility of the peptide. The peptide was added at 10 μg/ml. After two days, IL-2 was added at a final concentration of 20 to 100 U/ml. Round-bottomed culture dishes that allow the exchange of carbon dioxide gas are preferably used to co-culture PBMCs with peptides. In the context of the present invention, 14-ml round-bottomed polypropylene tubes (Becton Dikinson) or 96-well U-bottomed cell culture microtest plates (Becton Dikinson) were used. The adenovirus-specific CTLs were confirmed after about two and four weeks of culture. The cells were stimulated again with the peptide at 10 μg/ml after about two weeks of culture. When the induction of adenovirus-specific CTLs was confirmed, the cells were further stimulated with peptide-pulsed antigen-presenting cells to establish CTL lines.
Approximately 1/10 to all of the cells induced by the above-described method were transferred into 96-well U-bottomed cell culture microtest plates, and the peptide used for the induction was added thereto at a final concentration of 0.01 to 0.05 μg/ml. Then, an intracellular protein transport inhibitor (for example, brefeldin A, monensin, or such) was added, and the cells were cultured in a 5% CO2 incubator at 37° C. for 5 to 16 hours. After culture, the cells were washed, and phycoerythrin (PE)-labeled MHC-tetramer reagent and phycoerythrin-Cy5(PC5)-labeled CD8 antibody (Beckman Coulter) were added thereto. The resulting mixture was allowed to stand at room temperature for 15 to 30 minutes. After washing, the cells were fixed with 4% formaldehyde at 4° C. for 15 minutes and washed with an excess amount of washing solution. After membrane permeabilization treatment with 0.1% saponin, an FITC-labeled anti-IFNγ antibody (Beckman Coulter) was added, and reacted at room temperature for 15 to 30 minutes. After washing, the proportion of IFNγ-positive cells in T cells or MHC-tetramer reagent-positive cells was determined using a flow cytometer.
PBMCs derived from ten people with HLA-A*24 molecule were tested using 10 types of peptides. […] Thus, these six types of candidate epitope peptides serve as adenovirus-specific CTL epitope peptides. Since the adenovirus-specific CTL epitope peptides have the HLA-A*24-binding motif, they are likely to be HLA-A*2402-restricted epitope peptides, which are carried by 60% or more of the Japanese people. In the context of the results described above, MHC-tetramer reagents were synthesized using five types of epitope peptides, and their utility was tested.

Sequence	specific CTL induction, cytokine quantification method (donor ID *24-1)	specific CTL induction, cytokine quantification method (donor ID *24-2)	specific CTL induction, cytokine quantification method (donor ID *24-3)	specific CTL induction, cytokine quantification method (donor ID *24-5)	specific CTL induction, cytokine quantification method (donor ID *24-8)	specific CTL induction, cytokine quantification method (donor ID *24-10)	specific CTL induction, cytokine quantification method (donor ID *24-11)	specific CTL induction, cytokine quantification method (donor ID *24-12)	specific CTL induction, cytokine quantification method (donor ID *24-13)	specific CTL induction, cytokine quantification method (donor ID *24-14)	specific CTL induction confirmed by CD8-positive, IFNγ-positive cells versus HIV peptide	peptide-specific cytokine production in PBMCs derived from ten people with HLA-A*24 molecule
TYFNLGNKF [TYF]	x	∘	x	x	∘	x	x	x	x	x	induced specific CTLs	induce cytokine production in a peptide-specific manner
VYSGSIPYL	x	∘	x	x	∘	x	x	x	x	x	induced specific CTLs	induce cytokine production in a peptide-specific manner
